Molecular target: Thermotoga maritima mPPase (TmPPase) (Thermotoga maritima, UniProt Q9S5X0)
Experiment: TmPPase inhibition assay (96-well plate, orthophosphate determination)
Assay type: biochemical
Settings: 2-bromophenyl carboxylates 25 and 26 versus 5 and 23; call rule not given here
Description: The inhibition assay was measured in 96 well plate assay as previously reported.5,6 Briefly, 1 µL of purified TmPPase (13 mg/mL) was reactivated in 99 µL of reactivation buffer (20 mM 2-(N-morpholino) ethanesulfonic acid (MES) pH 6.5, 3.5% (v/v) glycerol, 2 mM dithiothreitol (DTT), 4.5% dodecyl maltoside (DDM) and 12 mg/mL L-α-phosphatidylcholine from soybean) and incubated at 55 °C for 15 min. For the assay, to each tube strips, 0.2 µL of the reactivated enzyme was added to 14.8 µL of reaction buffer (200 mM Tris-Cl pH 8.0, 8.0 mM MgCl2, 333 mM KCl, and 67 mM NaCl) and 25 µL of inhibitor. The reaction mixtures were sealed with an adhesive sealing sheet (Thermo Scientific) and incubated at 71 °C for 5 min. The reactions were started with the addition of 10 µL of 2 mM sodium pyrophosphate, further incubation at 71 °C for 5 min and stopped by placing the reaction mixtures on ice for 10 min. The color development was done with the addition of ammonium heptamolybdate + ascorbic acid solution on ice for 10 min and then 90 µL of arsenic solution, at room temperature, for a minimum of 30 min. 180 µL of each reaction mixtures was then transferred into a clear 96 well polystyrene microplate and the absorbance was measured at 860 nm using a microplate spectrophotometer (MultiSkan Go, Thermo Scientific). The pilot inhibitor screening of 16 phosphate-mimicking fragments was done at 100 μM inhibitor concentration. Further screening was done with three different concentrations; 1 μM, 5 μM and 50 μM for soluble compounds, and 1 μM, 5 μM, and 20 μM for sparingly soluble compounds.6 The best hits were validated using 8 concentrations in triplicate in TmPPase.
The potent hits 12k and 12l compounds were then tested on the P. falciparum (PfPPase-VP1) membrane fractions expressed in baculovirus-infected insect cells (the expression method and further enzyme analysis will be described in more detail elsewhere). Briefly, to each tube strips, 2.4 µL of PfPPase-VP1 membrane fraction (5 mg/mL) was added into 12.6 µL of reaction buffer (200 mM Tris-Cl pH 8.0, 8.0 mM MgCl2, 333 mM KCl, 67 mM NaCl, 3.3 mM NaF, and 17 μM Gramicidin D) and 25 µL of inhibitor. The reaction mixtures were incubated at 30 °C for 5 min and the assay was started by the addition of 10 µL of 2 mM sodium pyrophosphate and further incubation at 30 °C for 10 min. The reaction termination and color development were done as before.
The in vitro anti-plasmodial activity assay strain 3D7 was maintained in culture as described previously.7 Briefly, parasites were cultured in O+ human erythrocytes at 5% haematocrit in RPMI - 1640 medium supplemented with 0.5% Albumax II (Gibco, Carlsbad, CA, USA), 200 μM hypoxanthine (Sigma, St. Louis, MO, USA) and 20 μg/mL gentamycin (Gibco). Parasites were synchronized with the sorbitol method as described. 8 Test compound was dissolved in DMSO to make a stock solution of 10 mM. Two -fold serial dilutions of the test compound were made in the culture medium to cover the range of 400 µM – 400 nM. Fifty microliters of each dilution were mixed in 96 well plate with 150 µL of 2% haematocrit of 0.5% parasitemia (ring stage). DMSO concentration in the highest compound concentration w as 0.1%. After 72 h incubation at 37 °C, the parasite growth was quantified using fluorescent SYBR Green I ® -based assay as described. 9 The half-maximal inhibitory concentration (IC 50) of the test compound was assessed using the non-linear regression fit model in Prism 7 (GraphPad Software). The potent anti-malarial drug, artemisinin, was use in parallel as a positive control. Each concentration of the test compound was tested in duplicate and the assay was repeated three times. The mean and standard deviation of the three repeats were used to estimate the IC50.
IC50 determinations were done using R 3.6.110 and the n-parameter logistic regression (nplr) package11 version 0.1-7. In this package, the weighted nplr, given x (compound concentrations) and […]

Sequence of Thermotoga maritima mPPase (TmPPase) (Q9S5X0 whole entry): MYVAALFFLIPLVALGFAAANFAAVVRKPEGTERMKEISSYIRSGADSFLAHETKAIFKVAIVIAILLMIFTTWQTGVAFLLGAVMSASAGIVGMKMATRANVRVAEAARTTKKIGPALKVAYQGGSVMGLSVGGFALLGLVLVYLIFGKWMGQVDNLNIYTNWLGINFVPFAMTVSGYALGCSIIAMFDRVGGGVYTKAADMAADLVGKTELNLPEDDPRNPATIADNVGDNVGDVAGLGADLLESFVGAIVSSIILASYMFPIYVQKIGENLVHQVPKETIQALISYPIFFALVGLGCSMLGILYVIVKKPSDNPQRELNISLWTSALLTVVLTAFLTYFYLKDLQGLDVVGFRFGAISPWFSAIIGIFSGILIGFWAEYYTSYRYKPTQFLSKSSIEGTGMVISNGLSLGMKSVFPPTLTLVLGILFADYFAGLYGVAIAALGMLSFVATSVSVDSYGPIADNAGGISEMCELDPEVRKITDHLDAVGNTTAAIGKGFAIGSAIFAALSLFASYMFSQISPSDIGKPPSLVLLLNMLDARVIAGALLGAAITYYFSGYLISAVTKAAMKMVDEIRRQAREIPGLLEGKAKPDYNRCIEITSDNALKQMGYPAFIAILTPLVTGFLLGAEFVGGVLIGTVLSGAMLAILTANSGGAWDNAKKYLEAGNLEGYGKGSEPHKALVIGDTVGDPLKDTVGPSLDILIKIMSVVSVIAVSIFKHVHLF

Row | SMILES | fold loss in activity compared to the carboxylic acids [fold]
1 | O=C(Oc1ccccc1Br)c1cnc(-c2ccccc2)s1 [Compound 26] | 1.6

Same assay, conditions: IC50 [CI95%] (µM), purified TmPPase; unrounded values of the molecular formula strings file

Row | SMILES | IC50 [µM]
2 | CCOC(=O)c1cc(-c2ccc(OC)c(S(=O)(=O)Nc3ccc(Cl)cc3F)c2)on1 [SI-32] | 122
3 | CCOC(=O)c1cc(-c2ccc(OC)c(S(=O)(=O)Nc3ccc(F)c(Cl)c3)c2)on1 [SI-31] | 58
4 | CCOC(=O)c1cc(-c2ccc(OC)c(S(=O)(=O)Nc3ccc(Cl)cc3)c2)on1 [SI-33] | 280
5 | CCOC(=O)c1cc(-c2ccc(OC)c(S(=O)(=O)Nc3ccc(F)cc3Cl)c2)on1 [SI-29] | 180
6 | Cc1ccc(-c2cc(C(=O)Oc3ccccc3Br)no2)cc1C [SI-54] | 17.4
7 | O=C(Oc1ccccc1Br)c1cc(-c2ccc([N+](=O)[O-])cc2)on1 [Compound 12h] | 19.6

Same assay, conditions: IC50 [CI95%], purified TmPPase; 95% confidence interval in square brackets

Row | SMILES | IC50 [µM]
8 | CCOC(=O)c1cc(-c2ccc(OC)c(S(=O)(=O)Nc3ccc(Cl)cc3F)c2)on1 [SI-32] | 122
9 | CCOC(=O)c1cc(-c2ccc(OC)c(S(=O)(=O)Nc3ccc(F)c(Cl)c3)c2)on1 [SI-31] | 58
10 | CCOC(=O)c1cc(-c2ccc(OC)c(S(=O)(=O)Nc3ccc(Cl)cc3)c2)on1 [SI-33] | 280
11 | CCOC(=O)c1cc(-c2ccc(OC)c(S(=O)(=O)Nc3ccc(F)cc3Cl)c2)on1 [SI-29] | 180
12 | Cc1ccc(-c2cc(C(=O)Oc3ccccc3Br)no2)cc1C [SI-54] | 17
13 | O=C(Oc1ccccc1Br)c1cc(-c2ccc([N+](=O)[O-])cc2)on1 [Compound 12h] | 20

Same assay, conditions: TmPPase

Row | SMILES | biological activity (in words)
14 | O=C(O)c1cc(-c2ccc([N+](=O)[O-])cc2)on1 [Compound 11h] | did not lead to the desired activity
15 | O=C(O)c1cc(-c2ccccc2)on1 [Compound 11a] | inactive
16 | O=C(O)c1cc(-c2cc(C(F)(F)F)cc(C(F)(F)F)c2)on1 [Compound 11m] | did not lead to the desired activity
17 | Cc1c(-c2cc(C(=O)O)no2)cnn1C [Compound 6] | lacked biological activity
18 | Cc1cc(C)cc(-c2cc(C(=O)Nc3ccccc3Br)no2)c1 [Compound 28] | inactive

Same assay, conditions: computed using the pIC50 and the Heavy Atom Count (LEHA) normalization method, Discovery Studio

Row | SMILES | LE (ligand efficiency)
19 | O=c1[nH]c2ccc(S(=O)(=O)CCO)cc2o1 [Compound 2] | 0.27
20 | CC(C)(C)c1cc(C(=O)Nc2ccc(S(N)(=O)=O)cc2)cc(C(C)(C)C)c1 [Compound 14] | 0.16
21 | Cc1cc(C)cc(-c2cc(C(=O)Oc3ccccc3)no2)c1 [Compound 27] | 0.20
22 | O=C(Oc1ccccc1Br)c1cnc(-c2ccccc2)s1 [Compound 26] | 0.20
23 | O=C(O)c1cnc(-c2ccccc2)s1 [Compound 23] | 0.32
24 | CC(C)(C)c1cccc(-c2cc(C(=O)Oc3ccccc3Br)no2)c1 [Compound 12j] | 0.20
25 | Cc1ccc(-c2cc(C(=O)Oc3ccccc3Br)no2)cc1C [SI-54] | 0.20
26 | O=C(Oc1ccccc1Br)c1cc(-c2ccc([N+](=O)[O-])cc2)on1 [Compound 12h] | 0.19
27 | Cc1cccc(-c2cc(C(=O)Oc3ccccc3Br)no2)c1 [Compound 12i] | 0.23

Same assay, conditions: purified TmPPase; 95% confidence interval in square brackets

Row | SMILES | IC50 [CI95%]
28 | CC(C)(C)c1cc(CCC(=O)O)cc(C(C)(C)C)c1 [Compound 20] | Inactive
29 | CCOC(=O)c1cc(-c2csc(CS(=O)(=O)c3ccccn3)n2)on1 [SI-14] | Inactive
30 | CCOC(=O)c1cc(-c2ccccc2OC)on1 [Compound 10e] | Inactive
31 | CCOC(=O)c1cc(-c2ccc(OC)c(S(=O)(=O)NC3CCCC3)c2)on1 [SI-26] | Inactive
32 | Nc1ccc(S(=O)(=O)NC2=NCCS2)cc1 [SI-2] | Inactive
33 | O=C1CS(=O)(=O)c2ccccc21 [SI-7] | Inactive
34 | CC(C)(C)c1cc(C(=O)NCC(=O)O)cc(C(C)(C)C)c1 [Compound 19] | Inactive
35 | O=C(O)c1cc(-c2ccc([N+](=O)[O-])cc2)[nH]n1 [Compound 22] | Inactive
36 | O=C(O)CS(=O)(=O)c1ccccc1[N+](=O)[O-] [SI-4] | Inactive
37 | CCOC(=O)c1cc(-c2ccccc2C(=O)OC)on1 [Compound 10b] | Inactive
38 | CCOC(=O)c1cc(-c2cccc(C(=O)OC)c2)on1 [Compound 10c] | Inactive
39 | CCOC(=O)c1cc(-c2ccc(OC)c(S(=O)(=O)N3CCOCC3)c2)on1 [SI-23] | Inactive
40 | O=C(O)c1ccc2c(c1)S(=O)(=O)NC2=O [SI-6] | Inactive
41 | CCOC(=O)c1cc(-c2ccccc2)on1 [Compound 10a] | Inactive
42 | O=C(O)c1csc(-c2ccc(C(F)(F)F)cc2)n1 [SI-52] | Inactive
43 | CCOC(=O)c1cc(-c2csc(Nc3ccccc3)n2)on1 [SI-16] | Inactive
44 | CCOC(=O)c1cc(-c2ccc(OC)c(S(=O)(=O)N3CCCC3)c2)on1 [SI-27] | Inactive
45 | CCOC(=O)c1cc(-c2ccc(OC)c(S(=O)(=O)N3CC(=O)Nc4ccccc43)c2)on1 [SI-21] | Inactive
46 | CC(=O)Nc1ccc(S(=O)(=O)NC(CO)C(=O)O)cc1 (stereo not drawn) [SI-10] | Inactive

Row | SMILES | IC50 [CI95%]
47 | Nc1ccc(S(=O)(=O)NCC(=O)O)cc1 [SI-8] | Inactive
48 | CCOC(=O)c1cc(-c2ccc([N+](=O)[O-])cc2)[nH]n1 [SI-51] | Inactive
49 | CCOC(=O)c1cc(-c2ccccc2)[nH]n1 [SI-50] | Inactive
50 | COc1ccc(-c2cc(C(=O)O)no2)cc1S(=O)(=O)N1CCCC1 [SI-28] | Inactive
51 | CCOC(=O)c1cc(-c2cccc(OC)c2)on1 [Compound 10f] | Inactive
52 | CS(=O)(=O)Nc1ccc(C#N)cc1 [SI-12] | Inactive
53 | CC(C)(C)c1cc(C(=O)NCCN2CCOCC2)cc(C(C)(C)C)c1 [SI-48] | Inactive
54 | O=C(O)CN1C(=O)c2ccccc2S1(=O)=O [SI-9] | Inactive
55 | CC(C)(C)c1cc(C(N)=O)cc(C(C)(C)C)c1 [SI-43] | Inactive
56 | Cc1c(-c2cc(C(=O)O)no2)cnn1C [Compound 6] | Inactive
57 | CC(C)(C)c1cc(CC(=O)O)cc(C(C)(C)C)c1 [SI-42] | Inactive
58 | CCOC(=O)c1cc(-c2cccc(C)c2)on1 [Compound 10i] | Inactive
59 | CC(C)(C)c1cc(C(O)CC(=O)NN)cc(C(C)(C)C)c1 (stereo not drawn) [SI-44] | Inactive
60 | CCOC(=O)c1cc(-c2ccc([N+](=O)[O-])cc2)on1 [Compound 10h] | Inactive
61 | O=C(Oc1ccccc1Br)c1cc(-c2ccc([N+](=O)[O-])cc2)[nH]n1 [SI-53] | Slightly
62 | CCOC(=O)c1cc(-c2ccc(C(=O)OC)cc2)on1 [Compound 10d] | Inactive
63 | Nc1ccc(CO)c(B(O)O)c1 [SI-1] | Inactive
64 | COc1ccc(-c2cc(C(=O)O)no2)cc1S(=O)(=O)N1CCOCC1 [SI-24] | Inactive
65 | CCOC(=O)c1cc(-c2ccc(OC)c(S(=O)(=O)Nc3ncccc3C)c2)on1 [SI-18] | Inactive

Same assay, conditions: versus 12k

Row | SMILES | fold loss of inhibition on removing the bromine atom [fold]
66 | Cc1cc(C)cc(-c2cc(C(=O)Oc3ccccc3)no2)c1 [Compound 27] | 3.6

Source: publication PMC7153278, “Discovery of Membrane-Bound Pyrophosphatase Inhibitors Derived from an Isoxazole Fragment” (ACS Medicinal Chemistry Letters, 2020)
